Results as given in patent US20170313974A1, “Modulation of Tissue Fatty Acid Composition of a Host by Human Gut Bacteria” (University College Cork, National University of Ireland, priority 2007, published 2017).
Marks after values point to notes of the source that are not given here.

Assays:
[1] = tested on: BALB/c mice; test: Tissue fatty acid composition, BALB/c α-linolenic acid feeding trial (8 weeks); type: in vivo
Method: Female BALB/c mice were purchased from Harlan ltd. (Briester, Oxon, UK) at 8 weeks of age and fed a normal diet for 1 week to stabilize all metabolic conditions. […] Mice were maintained at 4 per cage and exposed to a 12-h light:dark cycle at a constant temperature of 25° C. The mice were held at the Biological Services Unit in University College Cork. The animal experimentation was performed according to the guidelines for the care and use of laboratory animals approved by the Department of Health and Children.
(§1) Animals were fed standard mouse chow ad libitum with free access to water at all times. […] Following 8 weeks on experimental diets, the animals were sacrificed by cervical dislocation. Liver, adipose tissue and brain were removed from the carcasses, blotted dry on filter paper, weighed and frozen in liquid nitrogen. All samples were stored at −80° C. until processed.
Lipids were extracted according to the method by O'Fallon et al. (20). Briefly, samples were cut into 1.5-mm rectangular strips and placed into a screw-cap Pyrex culture tube together with 0.7 ml of 10 N KOH in water and 5.3 ml of MeOH. The tubes were incubated in a 55° C. water bath for 1.5 h with vigorous hand-shaking every 20 min. After cooling below room temperature, 0.58 ml of 24 N H2SO4 in water was added. The tubes were mixed by inversion and with precipitated K2SO4 present incubated again in 55° C. for 1.5 h with hand-shaking every 20 min. FAME were recovered by addition of 3 ml hexane and vortex mixed and separated by GLC (Varian 3400, Varian, Walnut Creek, Calif. USA fitted with a flame ionization detector) using a Chrompack CP Sil 88 column (Chrompack, Middleton, The Netherlands, 100 m×0.25 mm i.d., 0.20 μm film thickness) and He as carrier gas. The column oven was initially programmed at 80° C. for 8 min, and increased 8.5° C./min to a final column temperature of 200° C. The injection volume was 0.6 μl, with automatic sample injection on a SPI 1093 splitless on-column temperature programmable injector. Data were recorded and analysed on a Minichrom PC system (VG Data System, Manchester, U.K.). Peaks were identified with reference to retention times of fatty acids in a standard mixture. All fatty acid results are shown as mean±standard error mean (SEM) g/100 g FAME.

[2] = Body weight gain, BALB/c α-linolenic acid trial; type: in vivo, BALB/c mice; settings: 8 week trial period
Method: as §1

[3] = adipose tissue, 8 weeks, SEM, n = 8

CC/C=C\C/C=C\C/C=C\CCCCCCCC(=O)O [B, α-linolenic acid]
C16:0 palmitic acid, adipose tissue [1, 3]: 28.73 ± 2.16^c g/100 g FAME | C16:1c9 palmitoleic acid, adipose tissue [1, 3]: 6.07 ± 2.01 g/100 g FAME | C18:0 stearic acid, adipose tissue [1, 3]: 8.00 ± 2.33 g/100 g FAME | C18:1c9 oleic acid, adipose tissue [1, 3]: 14.83 ± 3.01 g/100 g FAME | C18:2n-6 linoleic acid, adipose tissue [1, 3]: 18.80 ± 0.81^c g/100 g FAME | C18:3n-3 linolenic acid, adipose tissue [1, 3]: 7.35 ± 2.15^c,d g/100 g FAME | C18:3n-6 γ-linolenic acid, adipose tissue [1, 3]: 0.13 ± 0.03 g/100 g FAME | C18:4n-3 stearidonic acid, adipose tissue [1, 3]: 0.12 ± 0.03 g/100 g FAME | C20:3n-6 dihomo-γ-linolenic acid, adipose tissue [1, 3]: 0.30 ± 0.09 g/100 g FAME | C20:4n-6 arachidonic acid, adipose tissue [1, 3]: 5.27 ± 2.04^c,d g/100 g FAME | C20:5n-3 eicosapentaenoic acid, adipose tissue [1, 3]: 2.37 ± 0.76^c,d g/100 g FAME | C22:5n-3 docosapentaenoic acid, adipose tissue [1, 3]: 0.55 ± 0.14^c,d g/100 g FAME | C22:6n-3 docosahexaenoic acid, adipose tissue [1, 3]: 1.17 ± 0.36 g/100 g FAME | n-6/n-3, adipose tissue [1, 3]: 2.15 ± 0.15^c,d | C16:0, brain ([1]; brain, 8 weeks, SEM, n = 8): 32.38 ± 0.44^c g/100 g FAME | C16:1c9, brain ([1]; brain, 8 weeks, SEM, n = 8): 0.94 ± 0.03^a,c,d g/100 g FAME | C18:0, brain ([1]; brain, 8 weeks, SEM, n = 8): 19.87 ± 0.14^a g/100 g FAME | C18:1c9, brain ([1]; brain, 8 weeks, SEM, n = 8): 17.61 ± 0.24^ g/100 g FAME | C18:2n-6, brain ([1]; brain, 8 weeks, SEM, n = 8): 1.54 ± 0.10^a,c,d g/100 g FAME | C20:4n-6, brain ([1]; brain, 8 weeks, SEM, n = 8): 6.88 ± 0.12^c,d g/100 g FAME | C20:5n-3, brain ([1]; brain, 8 weeks, SEM, n = 8): 0.15 ± 0.01^c,d g/100 g FAME | C22:5n-3, brain ([1]; brain, 8 weeks, SEM, n = 8): 0.24 ± 0.01^c g/100 g FAME | C22:6n-3, brain ([1]; brain, 8 weeks, SEM, n = 8): 8.87 ± 0.30^a g/100 g FAME | n-6/n-3, brain ([1]; brain, 8 weeks, SEM, n = 8): 0.89 ± 0.03^a | C18:3n-3, brain ([1]; brain, 8 weeks, SEM, n = 8, ND = not detected): 0.18 ± 0.02^a,c,d g/100 g FAME | higher concentrations of α-linolenic acid and EPA in liver and adipose tissue ([1]; compared with group C and group D, p<0.001): 10 fold | arachidonic acid/EPA ratio in adipose tissue, fold lower ([1]; compared with group D): ~20 fold | arachidonic acid/EPA ratio in liver, fold lower ([1]; compared with group D): approximately 30 fold | C16:0 palmitic acid, liver ([1]; liver, 8 weeks, SEM, n = 8): 23.89 ± 0.71^c,d g/100 g FAME | C16:1c9 palmitoleic acid, liver ([1]; liver, 8 weeks, SEM, n = 8): 2.07 ± 0.18^a,d g/100 g FAME | C18:0 stearic acid, liver ([1]; liver, 8 weeks, SEM, n = 8): 12.36 ± 0.44^a,d g/100 g FAME | C18:1c9 oleic acid, liver ([1]; liver, 8 weeks, SEM, n = 8): 10.16 ± 0.62^c,d g/100 g FAME | C18:2n-6 linoleic acid, liver ([1]; liver, 8 weeks, SEM, n = 8): 18.32 ± 0.21^d g/100 g FAME | C18:3n-3 linolenic acid, liver ([1]; liver, 8 weeks, SEM, n = 8): 9.47 ± 0.64^c,d g/100 g FAME | C18:3n-6 γ-linolenic acid, liver ([1]; liver, 8 weeks, SEM, n = 8): 0.17 ± 0.01^c,d g/100 g FAME | C18:4n-3 stearidonic acid, liver ([1]; liver, 8 weeks, SEM, n = 8): 0.16 ± 0.01^c,d g/100 g FAME | C20:3n-6 dihomo-γ-linolenic acid, liver ([1]; liver, 8 weeks, SEM, n = 8): 0.61 ± 0.02^a g/100 g FAME | C20:4n-6 arachidonic acid, liver ([1]; liver, 8 weeks, SEM, n = 8): 5.57 ± 0.14^a,c,d g/100 g FAME | C20:5n-3 eicosapentaenoic acid, liver ([1]; liver, 8 weeks, SEM, n = 8): 3.07 ± 0.12^a,c,d g/100 g FAME | C22:5n-3 docosapentaenoic acid, liver ([1]; liver, 8 weeks, SEM, n = 8): 0.94 ± 0.05^c,d g/100 g FAME | C22:6n-3 docosahexaenoic acid, liver ([1]; liver, 8 weeks, SEM, n = 8): 5.66 ± 0.28^d g/100 g FAME | n-6/n-3, liver ([1]; liver, 8 weeks, SEM, n = 8): 1.30 ± 0.07^c,d | body weight gain [2]: did not significantly influence
